Values of other authors as cited in patent publication US20220047541A1, “PHARMACEUTICAL COMPOSITIONS AND METHODS FOR TREATING PARKINSON'S DISEASE” (Pike Therapeutics, Inc., priority 2020, published 2022).

Key:
[1] = target: CB2 (Homo sapiens, UniProt P34972); settings: given as ×, fold or times
CB2, sequence (P34972 whole entry, species assumed): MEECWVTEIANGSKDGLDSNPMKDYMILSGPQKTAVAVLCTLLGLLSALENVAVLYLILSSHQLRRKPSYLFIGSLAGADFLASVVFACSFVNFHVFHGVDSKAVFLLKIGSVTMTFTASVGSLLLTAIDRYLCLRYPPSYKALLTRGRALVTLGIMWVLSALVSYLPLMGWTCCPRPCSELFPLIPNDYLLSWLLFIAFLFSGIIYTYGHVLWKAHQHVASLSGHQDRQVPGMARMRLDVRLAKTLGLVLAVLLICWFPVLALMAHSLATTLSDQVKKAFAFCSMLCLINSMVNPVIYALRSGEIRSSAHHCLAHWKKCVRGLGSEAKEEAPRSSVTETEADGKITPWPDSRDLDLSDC

Structure (SMILES)	selectivity for CB2 over CB1 [1]	solubility in water
CCCn1cc(C(=O)c2ccc(C)c3ccccc23)c2ccccc21 [JWH-120]	173 fold	–
CCCCCCC(C)(C)c1cc(OC)c2c(c1)OC(C)(C)C1CCC(O)CC21 (stereo not drawn) [JWH-350, 11-nor-1-methoxy-3-(1′,1′-dimethylheptyl)-9α-hydroxyhexahydrocannabinol]	33 fold	–
N[C@@H](Cc1ccc(O)c(O)c1)C(=O)O [Levodopa, L-3,4-dihydroxyphenylalanine (S)-2-amino-3-(3,4-dihydroxyphenyl)propanoic acid]	–	slightly soluble
CCCn1c(C)c(C(=O)c2ccc(C)c3ccccc23)c2ccccc21 [JWH-148]	more than 8 fold	–
CCCCCCC(C)(C)c1cc(O)c2c(c1)oc(=O)c1ccc(OC)cc12 [AM-1710]	54 fold	–
